# Experimental data taken from patent US11564914B2, “Methods of treating bone loss” (THE REGENTS OF THE UNIVERSITY OF CALIFORNIA, priority 2016, dated 2023).
# What was measured:
# sEH = biological target: T1, sEH (Homo sapiens, UniProt P34913); experiment: testing as sEH inhibitors (method not given); assay type: biochemical
# T1 sequence (P34913 1-555): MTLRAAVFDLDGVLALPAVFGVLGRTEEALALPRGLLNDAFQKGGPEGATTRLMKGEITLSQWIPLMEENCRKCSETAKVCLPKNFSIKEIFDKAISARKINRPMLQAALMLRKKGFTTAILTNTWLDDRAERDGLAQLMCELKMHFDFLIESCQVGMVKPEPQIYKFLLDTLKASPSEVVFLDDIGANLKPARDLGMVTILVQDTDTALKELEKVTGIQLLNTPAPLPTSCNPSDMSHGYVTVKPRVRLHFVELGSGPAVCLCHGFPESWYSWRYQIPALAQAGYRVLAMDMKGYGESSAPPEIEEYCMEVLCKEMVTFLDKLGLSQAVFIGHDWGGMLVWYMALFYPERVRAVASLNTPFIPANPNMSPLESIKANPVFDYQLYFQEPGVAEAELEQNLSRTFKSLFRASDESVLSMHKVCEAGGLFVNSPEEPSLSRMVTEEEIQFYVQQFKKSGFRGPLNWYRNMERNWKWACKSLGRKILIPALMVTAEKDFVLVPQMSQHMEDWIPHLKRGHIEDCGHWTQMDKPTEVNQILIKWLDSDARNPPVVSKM
# [1] = metabolic stability (method not given)
# [2] = blood concentration of TPPU by LC-MS; assay type: in vivo; settings: mouse, whole blood; mice, 24 h after last oral administration, after 15 days at 1 mg/kg/day
# Experimental: The samples were taken at 24 h after the last oral gavage treatment. […] The results are expressed as mean±SD from six mice per group.
# Animals orally received 1×10^9 CFU/ml of a diluted culture of freshly grown A. actinomycetemcomitans JP2, in a volume of 100 μl PBS containing 2% carboxymethylcellulose. The solution was placed into the oral cavity with a micropipette, and the procedure was repeated at 48 and 96 h after the first inoculation. Treatment with TPPU and EETs was initiated after the third inoculation of bacteria. The inhibitor was dissolved in PEG400 and administered at 1 mg/kg/day by oral gavage. For the treatment with EETs, we attempted to apply viscous solution of mixture of EET-methyl ester regioisomers dissolved in PEG400 to the gum tissue using a fine pipette at a dose of 1 μg/kg/day. The mice received the entire EET dose. This was done immediately before the oral gavage with both groups of mice receiving TPPU or mice receiving vehicle alone. Because EETs are unstable in stomach acid we assume exposure is largely topical or buccal. All treatments continued for 15 days. […] The negative control group consisted of uninfected mice (sham-infected), the positive control group was infected and received the vehicle only. One day after the treatment period (16th day), animals were sacrificed by cardiac puncture after anesthesia with xylazine/ketamine. […]
activity as inhibitor of sEH (sEH),metabolic stability [1],concentration at 24 h [2] [ng/mL],Compound
particularly high activity,metabolically stable,–,"CCCCCCCCCCCCNC(=O)NC12CC3CC(CC(C3)C1)C2 [ADU, N-Adamantyl-N′-dodecyl urea]"
–,–,> 8000,"CCC(=O)N1CCC(NC(=O)Nc2ccc(OC(F)(F)F)cc2)CC1 [TPPU, 1-trifluoromethoxyphenyl-3-(1-propionylpiperidin-4-yl) urea]"
